Here are results for 20 compounds from ChEMBL document CHEMBL1126350, “Phosphonoethylphenylalanine derivatives as novel antagonists of non-NMDA ionotropic glutamate receptors” (Bioorg Med Chem Lett, 1992).

Common to all, as to assay type: functional
The species entered for experiment [1] is Rattus norvegicus. Description: Inhibition of kainic acid (KA)-induced currents in rat brain mRNA-injected xenopus oocytes.
Experiment [2] is filed under the species Rattus norvegicus. Description: The compound was tested for its ability to inhibit AMPA-induced currents in rat brain mRNA-injected xenopus oocytes.
For experiment [3], the system named is Mus musculus. Description: Compound was tested for its ability to inhibit pentylenetetrazole-induced seizures in male CF-1 mice by i.c.v. administration.
The subject of experiment [4] is Mus musculus. The experiment in a line: Compound was tested for its ability to inhibit pentylenetetrazole-induced seizures in male CF-1 mice by i.p. administration. As to conditions: ip.
Experiment [5] is filed under the species Rattus norvegicus. Description: Compound was tested against kainic acid-induced neuronal damage in rat striatum, as assessed by preventing reduction in glutamate decarboxylase GAD activity. Also on record: scale not given: the % may be the effect or the level left.
For experiment [6], the species on record is Rattus norvegicus. The experiment in a line: Compound was tested against kainic acid-induced neuronal damage in rat striatum, as assessed by preventing reduction in choline acetyltransferase (ChAT) activity. Details: scale not given: the % may be the effect or the level left.

The term Ki denotes the dissociation constant of the complex between target and ligand, obtained from inhibition or displacement. `Cc1ccc(CC(N)C(=O)O)c(CCP(=O)(O)O)c1` (stereo not given) came in with a Ki in the experiment listed under Rattus norvegicus [1] of more than 100 µM.

As to `NC(Cc1cc(I)ccc1CCP(=O)(O)O)C(=O)O` (stereo not given), the inhibition constant Ki came out at 3.6 µM in the experiment filed under Rattus norvegicus [1] and 16 µM in the experiment filed under Rattus norvegicus [2].

In the case of `Cc1cc(C)c(CCP(=O)(O)O)c(CC(N)C(=O)O)c1` (stereo not given), the inhibition constant (Ki) in the experiment listed under Rattus norvegicus [1] was found to be 12 µM; in the experiment filed under Rattus norvegicus [2], 39 µM.

With `NC(Cc1cc(F)ccc1CCP(=O)(O)O)C(=O)O` (stereo not given), the inhibition constant Ki in the experiment filed under Rattus norvegicus [1] was 68 µM; in the experiment filed under Rattus norvegicus [2], 167 µM.

`NC(Cc1cc(C(F)(F)F)ccc1CCP(=O)(O)O)C(=O)O` (stereo not given) returned a Ki in the experiment filed under Rattus norvegicus [1] of 10 µM.

Turning to `NC(Cc1cc(Cl)ccc1CCP(=O)(O)O)C(=O)O` (stereo not given), the results for the inhibition constant Ki in the experiment listed under Rattus norvegicus [1] and in the experiment filed under Rattus norvegicus [2] were 15 µM and 48 µM, respectively.

In the experiment listed under Rattus norvegicus [1], `COc1ccc(CCP(=O)(O)O)c(CC(N)C(=O)O)c1` (stereo not given) gave a Ki of 67 µM.

The compound `Cc1cccc(CC(N)C(=O)O)c1CCP(=O)(O)O` (stereo not given) displayed a Ki in the experiment listed under Rattus norvegicus [1] of more than 100 µM.

As to `CCc1ccc(CCP(=O)(O)O)c(CC(N)C(=O)O)c1` (stereo not given), the figures for the Ki in the experiment filed under Rattus norvegicus [1] and in the experiment filed under Rattus norvegicus [2] were 17 µM and 50 µM, respectively.

For the compound `NC(Cc1cc(Br)ccc1CCP(=O)(O)O)C(=O)O` (stereo not given), the inhibition constant Ki in the experiment filed under Rattus norvegicus [1] was 10 µM; in the experiment filed under Rattus norvegicus [2] it was 61 µM.

Compound `O=C(O)C1CN(CCCP(=O)(O)O)CCN1` (stereo not given) registered an ED50 in the experiment with Mus musculus [3] of 0.15 nmol.

`Cc1ccc(CCP(=O)(O)O)c(CC(N)C(=O)O)c1` (stereo not given): the figures for the Ki in the experiment listed under Rattus norvegicus [1] and in the experiment listed under Rattus norvegicus [2] were 11 µM and 13 µM, respectively.

With `CC(C)(C)c1ccc(CCP(=O)(O)O)c(CC(N)C(=O)O)c1` (stereo not given), the inhibition constant (Ki) in the experiment listed under Rattus norvegicus [1] amounted to 29 µM.

For `NC(Cc1cc(-c2ccccc2)ccc1CCP(=O)(O)O)C(=O)O` (stereo not given), in the experiment filed under Rattus norvegicus [1], the inhibition constant (Ki) was found to be 76 µM.

Turning to `Cc1ccc(CCP(=O)(O)O)c(C[C@H](N)C(=O)O)c1`, the ED50 in the experiment on Mus musculus [3] came to 0.58 nmol; in the experiment on Mus musculus [4], 124 mg/kg.

As for `NC(Cc1cccc(-c2ccccc2)c1CCP(=O)(O)O)C(=O)O` (stereo not given), the inhibition constant Ki in the experiment filed under Rattus norvegicus [1] was 83 µM.

Turning to `Cc1cc(C)c(CCP(=O)(O)O)c(C[C@H](N)C(=O)O)c1`, the ED50 in the experiment on Mus musculus [3] turned out to be 0.3 nmol; in the experiment with Mus musculus [4], 111 mg/kg.

In the experiment listed under Rattus norvegicus [1], `NC(Cc1cc(C2CCCCC2)ccc1CCP(=O)(O)O)C(=O)O` (stereo not given) gave a Ki of 139 µM.

With `C=C(C)[C@H]1CN[C@H](C(=O)O)[C@H]1CC(=O)O` [KAINIC ACID], the results for the Activity in the experiment filed under Rattus norvegicus [5] and in the experiment filed under Rattus norvegicus [6] were 45% and 32%, respectively.

On to `Cc1cccc(CCP(=O)(O)O)c1CC(N)C(=O)O` (stereo not given), for which the inhibitory constant (Ki) in the experiment filed under Rattus norvegicus [1] is more than 100 µM.
